Among the data in US20250051356A1, “RIFABUTIN ANALOGS FOR THE TREATMENT OF DISEASE” (priority 2021, published 2025) are MIC values, retold here.

Format in all cases: cell-based
For experiment [1], the system named is S. aureus (UAMS-1625 strain). Put plainly: MIC by broth microdilution against S. aureus. Particulars: Staphylococcus aureus, read-out: MIC S. aureus.
For experiment [2], the system named is A. baumannii (HUMC1 strain). Put plainly: MIC by broth microdilution against A. baumannii in RPMI + 10% FCS. The note with it: Acinetobacter baumannii, read-out: MIC A. baumannii.
The subject of experiment [3] is M. abscessus subsp. abscessus ATCC 19977. Description: MIC against M. abscessus in Middlebrook 7H9 + ADC. The note with it: Mycobacteroides abscessus.
The next experiment relates to M. kansasii (ATCC 12478). Description: MIC against M. kansasii in CAMHB + ADC. The note with it: Mycobacterium kansasii.
The test system of another experiment is M. xenopi (ATCC 19250). Put plainly: MIC against M. xenopi in CAMHB + ADC. Particulars: Mycobacterium xenopi.
A further experiment relates to M. avium (ATCC 25291). Put plainly: MIC against M. avium in CAMHB + ADC. The note with it: Mycobacterium avium.
[4] abbreviates: ATCC19977, ATCC 19977, 7H9 + ADC, read-out: MIC M. abscessus.
[5] abbreviates: ATCC12478, ATCC 12478, CAMHB + ADC (5%), read-out: MIC M. kansasii.
Setting [6] is: ATCC19250, ATCC 19250, CAMHB + ADC (5%), read-out: MIC M. xenopi.
[7] abbreviates: ATCC25291, ATCC 25291, CAMHB + ADC (5%), read-out: MIC M. avium.
[8] abbreviates: ATCC19977, read-out: MIC M. abscessus.
Setting [9] is: ATCC12478, read-out: MIC M. kansasii.
[10] abbreviates: ATCC19250, read-out: MIC M. xenopi.
Where [11] appears, read: ATCC25291, read-out: MIC M. avium.

Each structure is given as a SMILES string. ≈ marks a conversion by molar mass, not a printed value. Read-outs that look alike come from different tables or passages of the source.

Usually MIC stands for the least concentration at which growth counts as inhibited. As to `CO[C@H]1/C=C/O[C@@]2(C)Oc3c(C)c(O)c4c(c3C2=O)C2=NC3(CCN(CC(C)C)CC3)NC2=C(NC(=O)/C(C)=C\C=C\[C@H](C)[C@H](O)[C@@H](C)[C@@H](O)[C@@H](C)[C@H](OC(=O)CC(=O)N2CCN(c3ccccc3)CC2)[C@@H]1C)C4=O` [Compound 11], the MIC in experiment [1] worked out at 0.25 µg/mL (≈ 0.241 µM); in experiment [2] (HUMC1 strain, RPMI + 10% FCS), 0.016 µg/mL; in experiment [3] (setting [4]), 0.125 µg/mL; in the experiment with M. kansasii (ATCC 12478) (setting [5]), 0.008 µg/mL; with M. xenopi (ATCC 19250) (setting [6]) it was 0.06 µg/mL; in the experiment on M. avium (ATCC 25291) (setting [7]), 0.125 µg/mL.
Turning to `CO[C@H]1/C=C/O[C@@]2(C)Oc3c(C)c(O)c4c(c3C2=O)C2=NC3(CCN(CC(C)C)CC3)NC2=C(NC(=O)/C(C)=C\C=C\[C@H](C)[C@H](O)[C@@H](C)[C@@H](O)[C@@H](C)[C@H](OC(=O)CC(=O)N2CCC(N(C)c3ccccc3)CC2)[C@@H]1C)C4=O` [Compound 14], the MIC worked out at 0.5 µg/mL (≈ 0.47 µM) in experiment [1]; 0.06 µg/mL in experiment [2] (HUMC1 strain, RPMI + 10% FCS); 0.125 µg/mL in experiment [3] (setting [4]); 0.002 µg/mL in the experiment on M. kansasii (ATCC 12478) (setting [5]); 0.03 µg/mL in the experiment with M. xenopi (ATCC 19250) (setting [6]); 0.06 µg/mL in the experiment with M. avium (ATCC 25291) (setting [7]).
Regarding `CO[C@H]1/C=C/O[C@@]2(C)Oc3c(C)c(O)c4c(c3C2=O)C2=NC3(CCN(CC(C)C)CC3)NC2=C(NC(=O)/C(C)=C\C=C\[C@H](C)[C@H](O)[C@@H](C)[C@@H](O)[C@@H](C)[C@H](OC(=O)C(C)C(=O)N2CCC(N(C)c3ccccc3)CC2)[C@@H]1C)C4=O` (stereo partly drawn) [Compound 40], the MIC was determined as 0.5 µg/mL (≈ 0.464 µM) in experiment [1]; 0.03 µg/mL in experiment [2] (HUMC1 strain, RPMI + 10% FCS); 0.125 µg/mL in experiment [3] (setting [4]); 0.001 µg/mL with M. kansasii (ATCC 12478) (setting [5]); 0.03 µg/mL in the experiment on M. xenopi (ATCC 19250) (setting [6]); 0.06 µg/mL in the experiment on M. avium (ATCC 25291) (setting [7]).
Regarding `CO[C@H]1/C=C/O[C@@]2(C)Oc3c(C)c(O)c4c(c3C2=O)C2=NC3(CCN(CC(C)C)CC3)NC2=C(NC(=O)/C(C)=C\C=C\[C@H](C)[C@H](O)[C@@H](C)[C@@H](O)[C@@H](C)[C@H](OC(=O)CC(=O)N2CCC(Nc3ccccc3)CC2)[C@@H]1C)C4=O` [Compound 44], the MIC in experiment [1] came to 0.25 µg/mL (≈ 0.238 µM); in experiment [2], 0.008 µg/mL; in experiment [3] (setting [8]), 0.25 µg/mL; with M. kansasii (ATCC 12478) (setting [9]), 0.004 µg/mL; in the experiment on M. xenopi (ATCC 19250) (setting [10]) it was 0.03 µg/mL; in the experiment on M. avium (ATCC 25291) (setting [11]), 0.06 µg/mL.
For `CO[C@H]1/C=C/O[C@@]2(C)Oc3c(C)c(O)c4c(c3C2=O)C2=NC3(CCN(CC(C)C)CC3)NC2=C(NC(=O)/C(C)=C\C=C\[C@H](C)[C@H](O)[C@@H](C)[C@@H](O)[C@@H](C)[C@H](OC(=O)CC(=O)N2CCC(n3nnc5cc(C(F)(F)F)ccc53)CC2)[C@@H]1C)C4=O` [Compound 49], the MIC in experiment [1] amounted to 1 µg/mL (≈ 0.875 µM); in experiment [2] (HUMC1 strain, RPMI + 10% FCS) it was 0.25 µg/mL; in experiment [3] (setting [4]), 0.25 µg/mL; in the experiment on M. kansasii (ATCC 12478) (setting [5]) it was 0.008 µg/mL; in the experiment with M. xenopi (ATCC 19250) (setting [6]) it was 0.03 µg/mL; with M. avium (ATCC 25291) (setting [7]), 0.06 µg/mL.
Take `CO[C@H]1/C=C/O[C@@]2(C)Oc3c(C)c(O)c4c(c3C2=O)C2=NC3(CCN(CC(C)C)CC3)NC2=C(NC(=O)/C(C)=C\C=C\[C@H](C)[C@H](O)[C@@H](C)[C@@H](O)[C@@H](C)[C@H](OC(=O)CC(=O)N2CCC(Cc3ccccc3)CC2)[C@@H]1C)C4=O` [Compound 50]: the MIC in experiment [1] amounted to 2 µg/mL (≈ 1.91 µM); in experiment [2], 0.06 µg/mL; in experiment [3] (setting [8]), 0.125 µg/mL; with M. kansasii (ATCC 12478) (setting [9]) it was 0.004 µg/mL; in the experiment on M. xenopi (ATCC 19250) (setting [10]), 0.03 µg/mL; with M. avium (ATCC 25291) (setting [11]), 0.06 µg/mL.
Regarding `CO[C@H]1/C=C/O[C@@]2(C)Oc3c(C)c(O)c4c(c3C2=O)C2=NC3(CCN(CC(C)C)CC3)NC2=C(NC(=O)/C(C)=C\C=C\[C@H](C)[C@H](O)[C@@H](C)[C@@H](O)[C@@H](C)[C@H](OC(=O)CC(=O)N2CCC3(CC2)Cc2ccccc2C3)[C@@H]1C)C4=O` [Compound 52], the MIC is 0.5 µg/mL (≈ 0.472 µM) in experiment [1]; 0.016 µg/mL in experiment [2] (HUMC1 strain, RPMI + 10% FCS); 0.125 µg/mL in experiment [3] (setting [4]); 0.002 µg/mL in the experiment on M. kansasii (ATCC 12478) (setting [5]); 0.03 µg/mL in the experiment on M. xenopi (ATCC 19250) (setting [6]); 0.03 µg/mL with M. avium (ATCC 25291) (setting [7]).
With `CO[C@H]1/C=C/O[C@@]2(C)Oc3c(C)c(O)c4c(c3C2=O)C2=NC3(CCN(CC(C)C)CC3)NC2=C(NC(=O)/C(C)=C\C=C\[C@H](C)[C@H](O)[C@@H](C)[C@@H](O)[C@@H](C)[C@H](OC(=O)CC(=O)N2CCC(O)(Cc3ccccc3)CC2)[C@@H]1C)C4=O` [Compound 54], the MIC amounted to 0.125 µg/mL (≈ 0.117 µM) in experiment [1]; 0.008 µg/mL in experiment [2] (HUMC1 strain, RPMI + 10% FCS); 0.25 µg/mL in experiment [3] (setting [4]); 0.008 µg/mL in the experiment on M. kansasii (ATCC 12478) (setting [5]); 0.125 µg/mL in the experiment with M. xenopi (ATCC 19250) (setting [10]); 0.06 µg/mL in the experiment with M. avium (ATCC 25291) (setting [7]).
